Data: US20060216779A1, “Method for the detection of post-translational modification activities and device system for carrying out said method” (priority 2003, published 2006)

Columns and labels:
[1] = measurement of the relative dielectric constant ε of the peptide in water in a measuring capacitor; format: physicochemical; details: dissolved in water, 1.14 mM, 4 microlitres, t=23° C.
Protocol: According to further variant for the detection of posttranslational activities, the dielectric constant (permittivity) of a liquid sample with a sensor is measured. As is evident from FIG. 3A, the sample is located in a detection cell (measuring cell 11) serving as a capacitor. The introduction of a polarizing dielectric between the capacitor plates reduces the electric field intensity in vacuum E0 to P/ε0: E=E0−P/ε0 (4) where […] and P is the induced polarization of the dielectric with dielectric constant ε.
The polypeptides (S1) or (S2) dissolved in water have been placed as a dielectric between the electrode plates of the measuring capacitor (measuring cell 11), see FIG. 3A. Polypeptide ELDVPIPGRFDRRVSVAAD (S1) is a specific substrate for protein kinase A which catalyses the phosphorylation of serine. Phosphatase PP2B implements the dephosphorylation of serine of the polypeptide ELDVPIPGRFDRRVpSVAAD (S2). […]
Regarding the detection of peptide modification in tests through the measurement of the relative dielectric constant ε, the following should be added: four microlitres of samples, each containing the polypeptide S1 (unphosphorylated) or S2 (phosphorylated) (table 1), dissolved in water to a concentration of 1.14 mM, are directly introduced between the electrode plates of a measuring capacitor. The dielectric constant ε is measured at a temperature of t=23° C. […]

[2] = measurement of the frequency shift of an oscillator with the peptide sample as core of the induction coil; format: physicochemical; details: 150 μL sample, 1.14M in water, t=22° C., f0=5342.9 kHz; S2 instead of S1
Excerpt: According to a further variant of the method for the detection of posttranslational activities, the polypeptides (S1) or (S2) dissolved in water and used as substrates are located in a measuring cell with an inductivity of L and a capacitance of C which functions as an oscillator (FIG. 5). The frequency ω can be determined by […] which can be measured to a high degree of accuracy (10^−5).
For the detection of peptide modification through the measurement of the frequency shift of an oscillator, an experiment was carried out as follows:
A tube containing 150 μL of samples with unphosphorylated peptide S1 or phosphorylated peptide S2 (concentration […] in water) was placed as the core in an induction coil of an oscillator. Frequency f was measured at temperature t=22° C., f0=5342.9 kHz.

Substance | dielectric constant ε [1] | oscillator frequency change [2]
ELDVPIPGRFDRRVSVAAD [Sensor S1, synthesized polypeptide sensor, specific substrate for protein kinase A] | 76 | 
ELDVPIPGRFDRRVpSVAAD [Sensor S2] | 70 | distinct reduction in frequency
